Measurements published in patent publication US8263757B2, “Promiscuous HER-2/Neu CD4 T cell epitopes” (Dendreon Corporation, priority 2006, dated 2012).

Legend:
[1] = tested on: T cell clone HER500.23c21; assay: Minimal epitope: truncated HERp270-284 peptides presented by EBV LcL lines of diverse HLA-DRB1 alleles to HER500.23c21; format: cell-based, human; settings: presented by EBV LcL lines representing HLA-DRB1 alleles *0301, *0302, *1301 and *1402
From the text: FIG. 5. Graphic depiction of IFNγ production by HER500.23c21 following exposure to peptides presented by EBV LcL lines of diverse HLA-DRb1 alleles. The peptides were 9-mers (SEQ ID NOS:3-9) within the HER-2/Neu peptide 270-284 (SEQ ID NO:2).
FIG. 6. Graphic depiction of IFNγ production by HER500.23c21 following exposure to peptides presented by EBV LcL lines of diverse HLA-DRb1 alleles. The peptides were 10- or 11-mers (SEQ ID NOs:12-15, 10, 1, 16-19 and 11, respectively) within the HER-2/Neu peptide 270-284.
Because of the clear response of HER500.23c21 to HER-2/Neu protein sequences, the specific epitope recognized by HER500.23c21 was mapped using peptides. HER500.23c21 was tested against a panel of 125 individual overlapping 15-mer peptides covering the HER-2/Neu protein sequences within HER500. Each peptide was used at 1 ug/ml with autologous EBV LCL cells as antigen presenting cells. […]
In this series of experiments, additional peptides derived from the HER-2/Neu protein were tested for their potential as promiscuous MHC Class II HER-2/neu epitopes. […] Supernatants were harvested and analyzed for IFNγ production using ELISA. […] Results of the IFNγ produced by clone HER500.23c21 in response to peptide and each HLA-DR allele are reported in pg/mL of IFNγ or as absorbance at 492 nm.

[2] = tested on: T cell clone HER500.23c21; assay: Antigen-specific stimulation of T cell clone HER500.23c21 by protein antigens presented by autologous PBMC (IFNγ ELISA, IL-2 by HT-2 proliferation); format: cell-based, human; settings: autologous PBMC presentation, increasing doses of antigen; for IFNγ and IL-2 production by HER500.23c21 in response to antigen: 48 hours
Method: FIG. 1. T cell clone HER500.23c21 is HER-2/Neu specific. (A) HER500 (amino acids ▪ and BA7072 (HER500/GM-CSF fusion protein) ♦ specific IFNγ production by HER500.23c21 was measured using ELISA after autologous PBMC presentation of the antigens; background was also tested ▴. Assay was set up in triplicate in 96 well round bottom plates in complete IMDM media with 10% FBS. Autologous PBMCs were used at 2×10^5 cells/well and T cell clone HER500.23c21 was added at 1×10^5 cells/well. Antigens were at the final concentrations shown. Assay was incubated for 48 hours at 37° C. with 5% CO2 and supernatant was removed from wells to test for cytokine production. (A) IFNγ production. Data points shown represent the calculated pg/mL for each antigen concentration. (B) IL-2 production for the same assay was measured using HT-2 cell proliferation. Data points represent the mean CPM values for each antigen concentration.
Identification and Characterization of HER-2/neu specific T cell clones. Clones were screened for antigen specificity using autologous PBMC and antigen or autologous EBV-LcL and Her500 peptides. Stimulations were set up in 96 well round bottom plates in cRPMI+10% FBS media and incubated for 48 hours at 37° C. with 5% CO2. Additionally, clones were stained for CD4 and CD8 surface expression by flow cytometry.
Cytokine Production. To determine cytokine production in the antigen specific stimulation assays, after 48 hours, 200 μL of supernatant was pulled from cultures and tested for both IL-2 and IFNγ production. IL-2 production was measured using the IL-2 dependent line HT-2 (ATCC). HT-2 cells were grown in IMDM with 10% FBS and 100 uM NEAA, 1 mM Sodium Pyruvate, 2 mM L-glutamine, […], 50 U/mL Streptomycin, 20 mM HEPES and 20 uM 2-Mercaptoethanol (cIMDM+10% FBS) and fed twice a week with 20 ng/mL rIL-2. For the assay, 4 days after HT-2 cells were split, cells were washed with IMDM+10% FBS to remove all rIL-2, and cells were added to 96 well round bottom plates at 1×10^4 cells/well in cIMDM+10% FBS. Supernatants from antigen specific stimulation were added to wells and plates were incubated 24-30 hours at 37° C. The following day 1 μCi of ^3[H] TdR was added for the final 6 hours of the assay and plates were harvested to glass fiber filter mats and DNA incorporation of the radioisotope, or proliferative response, was determined by counts per minute using a liquid scintillation counter (PerkinElmer Life and Analytical Sciences, Inc. Boston, Mass.). IFNγ production was measured using anti-human IFNγ antibody pairs for ELISA (BD Pharmingen, San Diego, Calif.). […] 2M HCl was added to stop the reaction and plates were read for absorbance at 492 nm on a spectrophotometer. […]

VTYNTDTFESM (HER-2p270-284 11-mer) [SEQ ID NO:10, 11-mer truncation of HERp270-284]
Stimulation of HER500.23c21 [1]: successful

HER500: recombinant protein containing sequences from both the ECD and ICD of HER-2/neu; HER-2/neu portion of BA7072
dose dependence of HER500.23c21 response to protein [2]: dose dependent manner
IFNγ and IL-2 production by HER500.23c21 in response to antigen [2]: specifically produced IFNγ and IL-2

BA7072: proprietary recombinant fusion protein: HER500 expressed as a fusion protein with hGM-CSF
dose dependence of HER500.23c21 response to protein [2]: dose dependent manner
IFNγ and IL-2 production by HER500.23c21 in response to antigen [2]: specifically produced IFNγ and IL-2

TYNTDTFESMP (HER-2p270-284 11-mer) [SEQ ID NO:11, 11-mer truncation of HERp270-284]
Stimulation of HER500.23c21 [1]: successful
